The nature of data set [1]: Cytotoxicity against human SH-SY5Y cells assessed as cell viability at 100 uM after 24 hrs. It is filed as cell-based. The note with it: read-out: Activity.
Data set [2] can be described thus: Cytotoxicity against human HepG2 cells assessed as cell viability at 10 uM after 24 hrs. It is filed as cell-based. The note with it: read-out: Activity.
For data set [3], the target named is Cholinesterase (Equus caballus) (UniProt P81908). Description: Inhibition of equine serum BChE at 100 uM by Ellman's method.
Data set [4] has as its system SH-SY5Y. Briefly: Cytotoxicity against human SH-SY5Y cells assessed as LDH release at 100 uM after 24 hrs. Type of data set: cell-based.
The test system of data set [5] is HepG2. Description: Cytotoxicity against human HepG2 cells assessed as LDH release at 10 uM after 24 hrs. Conditions: hepg2, 24 h. It is filed as cell-based.
The next data set concerns the target T1, Acetylcholinesterase (Bos taurus, UniProt P23795).
T1 sequence (P23795 whole entry): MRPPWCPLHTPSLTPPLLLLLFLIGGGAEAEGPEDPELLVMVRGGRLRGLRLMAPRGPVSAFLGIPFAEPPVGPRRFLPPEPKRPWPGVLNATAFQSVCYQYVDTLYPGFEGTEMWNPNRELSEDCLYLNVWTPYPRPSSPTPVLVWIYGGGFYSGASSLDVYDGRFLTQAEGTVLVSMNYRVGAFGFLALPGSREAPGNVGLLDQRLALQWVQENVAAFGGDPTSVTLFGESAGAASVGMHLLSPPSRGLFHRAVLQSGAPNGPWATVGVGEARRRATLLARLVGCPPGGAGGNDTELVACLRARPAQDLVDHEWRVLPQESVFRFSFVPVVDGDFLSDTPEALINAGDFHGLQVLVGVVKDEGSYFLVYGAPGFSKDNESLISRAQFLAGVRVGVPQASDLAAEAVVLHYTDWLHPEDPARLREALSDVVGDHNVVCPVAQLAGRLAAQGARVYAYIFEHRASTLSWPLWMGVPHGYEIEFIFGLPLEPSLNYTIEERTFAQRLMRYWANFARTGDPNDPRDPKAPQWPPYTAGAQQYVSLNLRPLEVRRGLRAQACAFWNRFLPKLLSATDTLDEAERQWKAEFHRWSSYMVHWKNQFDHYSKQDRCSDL

Data set [6] relates to HepG2. Briefly: Cytotoxicity against human HepG2 cells assessed as LDH release at 100 uM after 24 hrs. It is filed as cell-based. The note with it: hepg2, 24 h. On the technique in general: LDH leaks from cells whose membrane has failed.
Data set [7] relates to SH-SY5Y. Description: Cytotoxicity against human SH-SY5Y cells assessed as LDH release at 10 uM after 24 hrs. Type of data set: cell-based.
Data set [8] can be described thus: Cytotoxicity against human SH-SY5Y cells assessed as cell viability at 10 uM after 24 hrs. It is filed as cell-based. The note with it: read-out: Activity.
A short description of data set [9]: Inhibition of amyloid beta (1-40) self-aggregation at 25 uM by thioflavin T fluorescence assay.
Data set [10] can be described thus: Cytotoxicity against human HepG2 cells assessed as cell viability at 100 uM after 24 hrs. Type of data set: cell-based. The note with it: read-out: Activity.

Active and inactive are the calls of the source. The calls are words filed in the database; no cut-off is given here.

2 molecules from ChEMBL document CHEMBL1157629, “Acetylcholinesterase inhibitors from the toadstool Cortinarius infractus” (Bioorg Med Chem, 2010) can be followed below.

Cholinesterase (Equus caballus), sequence (P81908 whole entry): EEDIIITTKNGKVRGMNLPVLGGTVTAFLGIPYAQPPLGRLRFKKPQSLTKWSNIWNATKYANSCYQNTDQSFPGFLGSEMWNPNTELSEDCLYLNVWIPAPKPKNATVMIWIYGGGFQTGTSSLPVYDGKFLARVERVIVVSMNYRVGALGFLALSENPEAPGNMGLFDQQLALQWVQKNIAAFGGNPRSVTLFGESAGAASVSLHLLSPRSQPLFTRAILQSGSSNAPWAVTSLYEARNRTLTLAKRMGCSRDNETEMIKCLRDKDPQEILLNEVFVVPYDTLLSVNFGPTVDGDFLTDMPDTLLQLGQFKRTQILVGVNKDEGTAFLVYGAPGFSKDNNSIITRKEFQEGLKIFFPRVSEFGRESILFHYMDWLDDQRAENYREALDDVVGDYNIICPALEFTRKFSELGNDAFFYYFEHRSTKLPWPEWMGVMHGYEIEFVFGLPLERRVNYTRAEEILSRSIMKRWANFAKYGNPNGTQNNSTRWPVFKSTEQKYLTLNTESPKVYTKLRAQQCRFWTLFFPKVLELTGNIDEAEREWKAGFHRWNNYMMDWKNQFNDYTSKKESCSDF
Description for Acetylcholinesterase: Inhibition of bovine AChE by Elman's method

The inhibition is the relative decrease from the control value, in per cent. What is called IC50 is the point on the concentration scale where inhibition reaches its midpoint. Take `O=c1cc2c3c4c(cc[n+]3CCC2)c2cc(O)ccc2n14.[Cl-]`: the viability at 24 h, 100 µM in data set [1] amounted to 98.3%; in data set [10] it was 101%. The viability at 24 h, 10 µM is 98.7% in data set [2] and 96.7% in data set [8]. Further, the inhibition entry in [3] was “inactive”. Further, the Activity is 0.97% in the data set with SH-SY5Y [4], 0.13% with HepG2 [5], 0.56% in the data set on HepG2 [6] and -1.86% with SH-SY5Y [7]. On Acetylcholinesterase, the IC50 stood at 12.7 µM. Besides, the inhibition result in [9] is “Active”.

`O=c1cc2c3c4c(cc[n+]3CCC2)c2ccccc2n14.[Cl-]` [INFRACTOPICRIN]: the viability at 24 h, 100 µM in data set [1] is 97.7%; in data set [10], 99.1%. Besides, the viability at 24 h, 10 µM in data set [2] came to 100%; in data set [8] it was 97.1%. Also, the inhibition result in [3] is “inactive”. Besides, the Activity was 1.33% in the data set with SH-SY5Y [4], 2.23% in the data set with HepG2 [5], 1.48% with HepG2 [6] and -0.07% with SH-SY5Y [7]. Also, at Acetylcholinesterase, inhibition was half-maximal at 9.72 µM (IC50). Moreover, in data set [9], the inhibition stood at 50%.
